Experimental data from patent publication US10155047B2, “Polymers having therapeutically active agents conjugated thereto, processes of preparing same and uses thereof” (Ramot at Tel-Aviv University Ltd., priority 2012, dated 2018).
Ends that are not written are not given here.

Columns and labels:
HUVECs = assay: Capillary-like tube formation assay of HUVECs; type: cell-based, human; conditions: PTX-equivalent concentrations of 80 nM
Protocol: The surface of 24-well plates is coated with Cultrex® basement membrane (50 μl/well; 10 mg/ml) on ice and then allowed to polymerize at 37° C. for 30 minutes. HUVECs (3×10^4) are seeded on coated plates in the presence of conditioned media of tumor cells treated with the conjugate and its controls. After 8 hours of incubation (37° C.; 5% CO2), wells are imaged using bright-field technique (Nikon TE2000E inverted microscope integrated with Nikon DS5 cooled CCD camera by 4× objective).
The effect of the PGA-PTX-DOX conjugate (Route 1, see, FIG. 18) on capillary-like tube formation of HUVECs was tested and compared to that of the free drugs, each alone and in combination, to that of PGA alone and to that of a PGA-PTX conjugate.
The effect of PGA, free PTX (80 nM), free C3, the conjugate PGA-C3, and the conjugates PGA-PTX and PGA-PTX-C3, at PTX-equivalent concentrations of 80 nM, on capillary-like tube formation of human umbilical vein endothelial cells (HUVEC) was evaluated, in order to confirm that anti-angiogenic properties of PTX are maintained after conjugation.

[1] = Zeta potential of conjugates; type: physicochemical; conditions: Table 13
[2] = Conjugate size by DLS analysis; type: physicochemical; conditions: estimated from DLS analysis
Excerpt: Based on DLS analysis, it is estimated that the conjugate is 10 nm in size, which is a suitable size for selective distribution by the EPR effect.

ES-2 cells = assay: ES-2 proliferation after 7 minutes treatment, wash and 72 hours in medium; type: cell-based, human; conditions: wash
Protocol: The effect of PGA, free PTX and the conjugates PGA-PTX, PGA-C3, and PGA-PTX-C3 on proliferation of ES-2 cells was evaluated after incubation of the cells with each treatment for 7 minutes, washing the cells and incubation in medium for 72 hours.
Short incubation time was selected since in the usual 72-hour incubation time, both the targeted and non-targeted conjugates would have had sufficient time to internalize into the cells. Under these experiment conditions, only the targeted conjugate remained bound to the cells, while non-targeted polymers or conjugates washed off, resulting in lower efficacy.

PGA-C3-PTX: PGA having attached C3 NCAM targeting peptide (SEQ ID NO:3) and PTX (GASKKPKRNIKA; also: conjugated to polyglutamic acid (PGA) and paclitaxel, site not given here)
inhibition of capillary-like tube formation (HUVECs): inhibited the formation of capillary-like tubes | Zeta potential [1]: −27.3 mV | size of the conjugate [2]: 10 nm | inhibition of proliferation (ES-2 cells): inhibited the proliferation of ES-2 cells more than non-targeted PGA-PTX
